Results on 29 molecules are retold here after patent publication US20060211755A1, “3-oxo-1, 3-dihydro-indazole-2-carboxylic acid amide derivatives as phospholipase inhibitors” (Eli Lilly and Company Patent Division, priority 2003, published 2006).

Regarding `CCCNC(=O)n1[nH]c2ccccc2c1=O` [Example 1, 3-Oxo-1,3-dihydro-indazole-2-carboxylic acid propylamide], the melting point is 153 to 155 °C. The molecule `CCCCCNC(=O)n1[nH]c2ccccc2c1=O` [Example 2, 3-Oxo-1,3-dihydro-indazole-2-carboxylic acid pentylamide] showed a melting point of 119 to 120 °C. The molecule `CC(C)CCCCNC(=O)n1[nH]c2ccccc2c1=O` [Example 5, 3-Oxo-1,3-dihydro-indazole-2-carboxylic acid (5-methyl-hexyl)-amide] showed a melting point of 134 to 136 °C. `Cc1ccccc1CNC(=O)n1[nH]c2ccccc2c1=O` [Example 16, 3-Oxo-1,3-dihydro-indazole-2-carboxylic acid 2-methyl-benzylamide] registered a melting point of 166 to 168 °C. In the case of `Cc1cccc(CNC(=O)n2[nH]c3ccccc3c2=O)c1` [Example 17, 3-Oxo-1,3-dihydro-indazole-2-carboxylic acid 3-methyl-benzylamide], the melting point is 179 to 180 °C.

For `COc1cccc(CNC(=O)n2[nH]c3ccccc3c2=O)c1` [Example 24, 3-Oxo-1,3-dihydro-indazole-2-carboxylic acid 3-methoxy-benzylamide], the melting point lay within 186 to 188 °C. As for `Cc1ccc2c(=O)n(C(=O)NCc3ccccc3C)[nH]c2c1` [Example 45, 6-Methyl-3-oxo-1,3-dihydro-indazole-2-carboxylic acid 2-methyl-benzylamide], the melting point was 235 °C (dec.).

In turn, `Cc1ccccc1CNC(=O)n1[nH]c2cccc(C(=O)O)c2c1=O` [Example 52, 2-(2-Methyl-benzylcarbamoyl)-3-oxo-2,3-dihydro-1H-indazole-4-carboxylic acid] yielded a melting point of over 250 °C. The molecule `Cc1ccccc1CNC(=O)n1[nH]c2ccc(C(=O)O)cc2c1=O` [Example 53, 2-(2-Methyl-benzylcarbamoyl)-3-oxo-2,3-dihydro-1H-indazole-5-carboxylic acid] had a melting point of over 250 °C. Molecule `Cc1ccccc1CNC(=O)n1[nH]c2c(C(=O)O)cccc2c1=O` [Example 55, 2-(2-Methyl-benzylcarbamoyl)-3-oxo-2,3-dihydro-1H-indazole-7-carboxylic acid] had a melting point of over 250 °C. In the case of `Cc1ccc(F)cc1CNC(=O)n1[nH]c2cccc(C(=O)O)c2c1=O` [Example 57, 2-(5-Fluoro-2-methyl-benzylcarbamoyl)-3-oxo-2,3-dihydro-1H-indazole-4-carboxylic acid], the melting point was 230 °C (dec.). As for `Cc1ccc(F)cc1CNC(=O)n1[nH]c2c(C(=O)O)cccc2c1=O` [Example 58, 2-(5-Fluoro-2-methyl-benzylcarbamoyl)-3-oxo-2,3-dihydro-1H-indazole-7-carboxylic acid], the figure is over 250 °C; as for `Cc1cccc(C)c1CNC(=O)n1[nH]c2cccc(C(=O)O)c2c1=O` [Example 59, 2-(2,6-Dimethyl-benzylcarbamoyl)-3-oxo-2,3-dihydro-1H-indazole-4-carboxylic acid], over 250 °C; as for `Cc1cccc(C)c1CNC(=O)n1[nH]c2c(C(=O)O)cccc2c1=O` [Example 60, 2-(2,6-Dimethyl-benzylcarbamoyl)-3-oxo-2,3-dihydro-1H-indazole-7-carboxylic acid], over 250 °C. `CCc1cccc(C)c1CNC(=O)n1[nH]c2cccc(C(=O)O)c2c1=O` [Example 61, 2-(2-Ethyl-6-methyl-benzylcarbamoyl)-3-oxo-2,3-dihydro-1H-indazole-4-carboxylic acid] displayed a melting point of over 250 °C.

`CCc1cccc(C)c1CNC(=O)n1[nH]c2ccc(C(=O)O)cc2c1=O` [Example 62, 2-(2-Ethyl-6-methyl-benzylcarbamoyl)-3-oxo-2,3-dihydro-1H-indazole-5-carboxylic acid] yielded a melting point of over 250 °C. As for `CCc1cccc(C)c1CNC(=O)n1[nH]c2cc(C(=O)O)ccc2c1=O` [Example 63, 2-(2-Ethyl-6-methyl-benzylcarbamoyl)-3-oxo-2,3-dihydro-1H-indazole-6-carboxylic acid], the melting point is over 250 °C. With `CCc1cccc(C)c1CNC(=O)n1[nH]c2c(C(=O)O)cccc2c1=O` [Example 64, 2-(2-Ethyl-6-methyl-benzylcarbamoyl)-3-oxo-2,3-dihydro-1H-indazole-7-carboxylic acid], the melting point was over 250 °C.

The molecule `CCCCc1ccc(CNC(=O)n2[nH]c3cccc(C(=O)O)c3c2=O)c(C)c1` [Example 68, 2-(4-Butyl-2-methyl-benzylcarbamoyl)-3-oxo-2,3-dihydro-1H-indazole-4-carboxylic acid] showed a melting point of 173 to 175 °C. As for `CCc1cccc(CC)c1CNC(=O)n1[nH]c2cccc(C(=O)O)c2c1=O` [Example 69, 2-(2,6-Diethyl-benzylcarbamoyl)-3-oxo-2,3-dihydro-1H-indazole-4-carboxylic acid], the melting point was over 250 °C. For `CCc1cccc(CC)c1CNC(=O)n1[nH]c2c(C(=O)O)cccc2c1=O` [Example 70, 2-(2,6-Diethyl-benzylcarbamoyl)-3-oxo-2,3-dihydro-1H-indazole-7-carboxylic acid], the melting point was over 250 °C. In turn, `CC(C)c1cccc(C(C)C)c1CNC(=O)n1[nH]c2c(C(=O)O)cccc2c1=O` [Example 72, 2-(2,6-Diisopropyl-benzylcarbamoyl)-3-oxo-2,3-dihydro-1H-indazole-7-carboxylic acid] yielded a melting point of over 250 °C. In turn, `O=C(O)c1cccc2[nH]n(C(=O)NCCCCc3ccccc3)c(=O)c12` [Example 75, 3-Oxo-2-(4-phenyl-butylcarbamoyl)-2,3-dihydro-1H-indazole-4-carboxylic acid] had a melting point of over 250 °C. With `O=C(O)c1cccc2[nH]n(C(=O)NCCCCC3CCCCC3)c(=O)c12` [Example 76, 2-(4-Cyclohexyl-butylcarbamoyl)-3-oxo-2,3-dihydro-1H-indazole-4-carboxylic acid], the melting point lay in the range of 196 to 198 °C. Regarding `CCCCCCNC(=O)n1[nH]c2cccc(C(=O)O)c2c1=O` [Example 78, 2-Hexylcarbamoyl-3-oxo-2,3-dihydro-1H-indazole-4-carboxylic acid], the melting point is over 250 °C. In the case of `CCc1cccc(C)c1CNC(=O)n1c(=O)c2cccc(C(=O)O)c2n1C` [Example 79, 2-(2-Ethyl-6-methyl-benzylcarbamoyl)-1-methyl-3-oxo-2,3-dihydro-1H-indazole-7-carboxylic acid], the melting point was over 250 °C.

Take `CCc1cccc(C)c1CNC(=O)n1c(=O)c2cccc(C(=O)O)c2n1CC` [Example 80, 1-Ethyl-2-(2-ethyl-6-methyl-benzylcarbamoyl)-3-oxo-2,3-dihydro-1H-indazole-7-carboxylic acid]: the melting point was over 250 °C.

As for `CCCn1c2c(C(=O)O)cccc2c(=O)n1C(=O)NCc1c(C)cccc1CC` [Example 81, 2-(2-Ethyl-6-methyl-benzylcarbamoyl)-3-oxo-1-propyl-2,3-dihydro-1H-indazole-7-carboxylic acid], the melting point was over 250 °C. Molecule `CCc1cccc(C)c1CNC(=O)n1c(=O)c2cccc(C(=O)O)c2n1CC(=O)O` [Example 82, 1-Carboxymethyl-2-(2-ethyl-6-methyl-benzylcarbamoyl)-3-oxo-2,3-dihydro-1H-indazole-7-carboxylic acid] displayed a melting point of 172 to 174 °C.

As a reminder, the melting point is the temperature of the solid-liquid transition.
